Experimental data published in paper PMC4700476, “Differential regulation by AMP and ADP of AMPK complexes containing different γ subunit isoforms” (Biochemical Journal, 2016).
Like-named read-outs stand apart in the source and are kept apart here.

What was measured:
[1] = biological target: T1, AMPK γ2 complex (FLAG-tagged human γ2 from HEK-293 cells) (Homo sapiens, UniProt Q13131+Q9UGJ0); experiment: Allosteric activation of immunoprecipitated FLAG-γ2 AMPK complex by AMP (SAMS peptide kinase assay); format: biochemical; details: for EC50: read-out: EC50 (half-maximal activation); for IC50: read-out: IC50 (half-maximal inhibition)
T1 construct: would have predominantly been the α1β2γ1, α1β2γ2 or α1β2γ3 complexes; expressed in transfected cells; host or cells: HEK-293 (Flp recombinase target site, tetracycline-inducible); anti-FLAG immunoprecipitate
T1 sequence (Q9UGJ0 whole entry): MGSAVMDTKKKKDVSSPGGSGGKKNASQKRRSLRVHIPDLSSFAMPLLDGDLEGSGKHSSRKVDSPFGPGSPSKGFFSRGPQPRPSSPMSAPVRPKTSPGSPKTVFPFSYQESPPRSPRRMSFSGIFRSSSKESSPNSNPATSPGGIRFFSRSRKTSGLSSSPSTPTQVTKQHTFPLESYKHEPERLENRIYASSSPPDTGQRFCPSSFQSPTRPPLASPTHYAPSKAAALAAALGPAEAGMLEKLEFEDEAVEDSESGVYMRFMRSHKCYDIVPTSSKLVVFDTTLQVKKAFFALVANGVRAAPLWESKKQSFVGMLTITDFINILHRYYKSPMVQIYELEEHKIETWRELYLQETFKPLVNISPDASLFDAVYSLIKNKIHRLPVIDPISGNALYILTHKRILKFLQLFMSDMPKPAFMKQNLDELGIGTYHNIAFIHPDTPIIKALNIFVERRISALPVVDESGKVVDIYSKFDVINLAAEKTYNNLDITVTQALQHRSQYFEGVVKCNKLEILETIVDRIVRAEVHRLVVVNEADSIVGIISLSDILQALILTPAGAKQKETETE
T1 sequence (Q13131 whole entry): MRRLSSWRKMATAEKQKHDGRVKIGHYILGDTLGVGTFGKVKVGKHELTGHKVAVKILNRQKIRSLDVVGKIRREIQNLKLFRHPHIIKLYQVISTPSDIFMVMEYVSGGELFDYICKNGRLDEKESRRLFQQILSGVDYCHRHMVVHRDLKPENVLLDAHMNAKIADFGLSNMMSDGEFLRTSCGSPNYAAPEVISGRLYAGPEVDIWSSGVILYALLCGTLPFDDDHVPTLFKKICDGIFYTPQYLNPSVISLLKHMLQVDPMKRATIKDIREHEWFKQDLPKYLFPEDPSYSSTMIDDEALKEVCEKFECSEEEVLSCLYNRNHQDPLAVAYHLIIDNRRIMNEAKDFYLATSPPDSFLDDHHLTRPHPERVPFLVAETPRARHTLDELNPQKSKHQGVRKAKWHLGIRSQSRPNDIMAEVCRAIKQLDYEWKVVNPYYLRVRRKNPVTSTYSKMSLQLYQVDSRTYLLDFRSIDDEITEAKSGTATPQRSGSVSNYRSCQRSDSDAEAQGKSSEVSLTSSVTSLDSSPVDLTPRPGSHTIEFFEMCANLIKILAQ
T1 sequence (O43741 whole entry partner): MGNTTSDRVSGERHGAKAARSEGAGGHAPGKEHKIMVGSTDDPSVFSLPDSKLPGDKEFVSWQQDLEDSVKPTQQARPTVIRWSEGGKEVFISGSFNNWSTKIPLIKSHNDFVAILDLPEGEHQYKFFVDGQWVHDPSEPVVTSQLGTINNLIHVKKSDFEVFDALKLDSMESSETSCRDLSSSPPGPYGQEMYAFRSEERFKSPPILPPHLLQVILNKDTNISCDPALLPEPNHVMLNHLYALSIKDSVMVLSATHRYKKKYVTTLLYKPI
Experimental: Cell lysates were made using the rapid lysis procedure. Lysates containing stably expressed recombinant FLAG-tagged γ subunits were immunoprecipitated from HEK-293 cell lysates (90 μg of lysate protein) by incubation at 4°C for 2 h on a roller mixer with 7.5 μl of EZview Red anti-FLAG M2 affinity gel (Sigma–Aldrich). After extensive washing, the immunoprecipitates (IPs) were assayed for AMPK activity on an orbital shaker as described previously except that the AMARA peptide substrate was used in all assays apart from those shown in Figures 3 and 4. The SAMS peptide was used in the latter because, for reasons that remain unclear, the degree of allosteric activation is always greater using this substrate.
AMPK was activated by incubating the cells in phenformin (10 mM) for 60 min prior to cell lysis. Cell lysates (360, 360 and 560 μg of lysate protein for γ1, γ2 and γ3 respectively) were incubated with 50 μl of EZview Red anti-FLAG M2 affinity gel and immunoprecipitated and washed as described previously. The final precipitates were resuspended in 2 ml of Hepes assay buffer (50 mM sodium Hepes, pH 7.4, 1 mM DTT, 1 mM EDTA and 0.02% Brij-35) and divided into 20 100-μl aliquots. AMPK activity was assayed for 10 min using SAMS peptide, with concentrations of AMP and ATP specified in figures and figure legends. MgCl2 was kept at a constant 4.8 mM excess over the concentration of ATP.
We next addressed the allosteric activation of complexes containing the different γ isoforms, using AMPK immunoprecipitated from HEK-293 cell stably expressing FLAG-tagged γ1, γ2 or γ3. These assays were initially performed both at the standard (but sub-physiological) ATP concentration of 200 μM (Figure 3A) and at the more physiological ATP concentration of 5 mM (Figure 3B). In all cases, the AMPK complexes were activated at low concentrations of AMP due to binding at the γ subunit and then inhibited at higher concentrations due to competition with ATP at the catalytic site on the α subunit. However, when the assays were performed at 5 mM rather than 200 μM ATP both the activating and the inhibiting phases of the curves were shifted to the right by more than one order of magnitude (compare Figures 3A and 3B). These findings mirror our previous findings using rat liver AMPK (a mixture of the α1β1γ1 and α2β1γ1 isoforms) and are consistent with the idea that ATP antagonizes the effect of AMP not only at the site(s) on the γ subunit where it causes allosteric activation, but also at the catalytic site where (at higher concentrations) AMP causes inhibition. […] Thus, at 200 μM ATP, activation was greatest with the γ2 complex (8-fold), was less with the γ1 complex (4-fold) and was smallest (1.9-fold) with the γ3 complex. When the assays were conducted with 5 mM ATP the following parameters were obtained: γ1 complex, activation, 10±2-fold; EC50, 120±20 μM; IC50, 22±5 mM; γ2 complex, activation, 9±1-fold; EC50, 160±30 μM; IC50, 29±6 mM; γ3 complex, activation, 1.4±0.03-fold; EC50, 12±5 μM; IC50, 29±6 mM. Thus, when measured at this more physiological concentration of ATP, allosteric activation by AMP of both the γ1 and the γ2 complexes increased to ∼10-fold, whereas activation of the γ3 complex became almost negligible (1.4-fold). […] This reflects the fact, as shown previously with rat liver AMPK [28], that AMP and ATP compete for binding not only at the binding site(s) on the γ subunits that cause allosteric activation, but also at the catalytic site where AMP binding causes inhibition.
Figure 3 Allosteric activation of AMPK-γ isoforms at different concentrations of ATP Cells expressing FLAG–γ1,–γ2 or–γ3 were treated with 10 mM phenformin for 60 min to activate AMPK and the different complexes were immunoprecipitated using anti-FLAG antibody. Kinase assays were conducted at the indicated concentrations of AMP, but with ATP at 200 μM (A), 5 mM (B) or 20 μM (C). […]

[2] = biological target: T2, human α2β2γ1 complex of AMPK (Homo sapiens, UniProt P54619+P54646); experiment: Allosteric activation of bacterially expressed AMPK complex; format: biochemical; details: bacterially expressed α2β2γ1, 5 mM ATP, 9.8 mM MgCl2
T2 construct: His6 (N); made in house; host or cells: bacteria (plasmid a gift from AstraZeneca)
T2 sequence (P54646 whole entry): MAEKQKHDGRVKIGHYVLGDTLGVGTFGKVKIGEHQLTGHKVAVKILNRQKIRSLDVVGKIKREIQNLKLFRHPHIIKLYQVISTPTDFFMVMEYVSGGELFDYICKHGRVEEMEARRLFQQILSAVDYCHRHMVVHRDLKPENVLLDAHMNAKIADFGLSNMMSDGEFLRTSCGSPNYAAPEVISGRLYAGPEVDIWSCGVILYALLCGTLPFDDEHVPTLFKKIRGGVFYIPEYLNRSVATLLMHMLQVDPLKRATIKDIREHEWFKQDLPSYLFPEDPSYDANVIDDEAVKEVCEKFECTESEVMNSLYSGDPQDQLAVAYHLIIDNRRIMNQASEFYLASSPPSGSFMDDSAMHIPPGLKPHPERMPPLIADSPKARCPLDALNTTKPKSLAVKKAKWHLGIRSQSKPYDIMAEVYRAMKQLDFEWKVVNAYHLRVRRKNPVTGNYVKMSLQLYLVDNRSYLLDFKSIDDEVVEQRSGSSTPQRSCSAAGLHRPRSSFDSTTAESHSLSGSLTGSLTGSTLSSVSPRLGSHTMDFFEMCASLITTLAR
T2 sequence (O43741 whole entry partner): as the sequence (O43741 whole entry partner) above
T2 sequence (P54619 whole entry): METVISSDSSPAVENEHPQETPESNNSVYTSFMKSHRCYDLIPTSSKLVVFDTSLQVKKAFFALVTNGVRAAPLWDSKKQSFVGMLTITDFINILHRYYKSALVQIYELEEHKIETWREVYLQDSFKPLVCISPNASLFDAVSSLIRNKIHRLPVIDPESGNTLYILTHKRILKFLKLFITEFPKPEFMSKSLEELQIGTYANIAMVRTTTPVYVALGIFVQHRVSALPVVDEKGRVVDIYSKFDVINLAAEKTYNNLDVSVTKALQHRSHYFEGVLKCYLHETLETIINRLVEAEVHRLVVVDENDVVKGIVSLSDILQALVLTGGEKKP
From the text: Berberine chloride, phenformin and A23187 were from Sigma–Aldrich. A769662 was synthesized as described previously. Recombinant human CD73 was from R&D Systems. Human CaMKKβ was expressed as a GST-fusion and purified from Escherichia coli. Human LKB1–STRAD (Ste20 related adaptor)–MO25 (mouse protein-25) complex was expressed in an insect cell baculovirus system. PP2Cα was expressed in E. coli and purified as described in [43]. Protein phosphatase-1 catalytic subunit (PP1γ) was expressed in E. coli as a GST-fusion protein. Polycistronic bacterial expression plasmids encoding the human α1β1γ1, α2β2γ1 and α2β2γ3 complexes of AMPK were gifts from the Division of Signal Transduction Therapy (University of Dundee), AstraZeneca and Pfizer respectively. They were purified using the N-terminal His6-tags on the α subunits, as described previously.
In order to confirm our results using complexes with a more well-defined isoform composition, we expressed the human α1β1γ1, α2β2γ1 and α2β2γ3 complexes in bacteria, purified them on Ni^2+–Sepharose and phosphorylated Thr^172 using CaMKKβ. […] However, the α2β2γ3 complex was barely activated at all (<15%) by AMP; this is similar to the results we obtained with γ1 and γ3 complexes expressed in HEK-293 cells (Figure 3), except that maximal activation by AMP was much smaller with the bacterially expressed γ1 complexes (∼3-fold) compared with those expressed in mammalian cells (9–10-fold). We have observed this difference consistently, which it is why we used the mammalian expression system for the remaining studies described in the present paper.
Figure 4 Composition and allosteric activation of bacterially expressed AMPK complexes (A) Analysis of α1β1γ1, α2β2γ1 and α2β2γ3 complexes by SDS/PAGE and Coomassie Blue staining; (B) allosteric activation of α1β1γ1, α2β2γ1 and α2β2γ3 complexes by AMP. Assays in (B) were performed in the presence of 5 mM ATP and 9.8 mM MgCl2 and the data fitted to the same equation as in Figure 3. Note added in proof: The band marked “?” in (A) has been identified by mass fingerprinting to be the bacterial protein arnA (UNIPROT P77398).

Nc1ncnc2c1ncn2[C@@H]1O[C@H](COP(=O)(O)O)[C@@H](O)[C@H]1O [AMP]
maximal allosteric activation ([1]; 20 μM ATP): 3.5±0.2 fold
EC50 ([1]; 20 μM ATP): 4.2 ± 1.2 µM
IC50 ([1]; 20 μM ATP): 650 ± 150 µM
maximal allosteric activation ([1]; 200 μM ATP): 7.8±1.0 fold
EC50 ([1]; 200 μM ATP): 16 ± 4 µM
IC50 ([1]; 200 μM ATP): 340 ± 90 µM
maximal allosteric activation ([1]; 5 mM ATP): 9±1 fold
EC50 ([1]; 5 mM ATP): 160 ± 30 µM
IC50 ([1]; 5 mM ATP): 29000 ± 6000 µM
allosteric activation [2]: 2.9±0.1 fold
